ChEMBL document CHEMBL3991601, “The target landscape of clinical kinase drugs” (Science, 2017)
The source made the active and inactive calls. Cut-off read from the data, not from the text of the source, for most assays here: actives have a measured Kd and inactives only a lower limit.

Assays:
[1] = target: Serine/threonine-protein kinase MRCK alpha (Homo sapiens, UniProt Q5VT25)
[2] = target: Cyclin-dependent kinase 6 (Homo sapiens, UniProt Q00534)
[3] = target: Tyrosine-protein kinase CSK (Homo sapiens, UniProt P41240)
Chain of Tyrosine-protein kinase CSK (P41240 whole entry): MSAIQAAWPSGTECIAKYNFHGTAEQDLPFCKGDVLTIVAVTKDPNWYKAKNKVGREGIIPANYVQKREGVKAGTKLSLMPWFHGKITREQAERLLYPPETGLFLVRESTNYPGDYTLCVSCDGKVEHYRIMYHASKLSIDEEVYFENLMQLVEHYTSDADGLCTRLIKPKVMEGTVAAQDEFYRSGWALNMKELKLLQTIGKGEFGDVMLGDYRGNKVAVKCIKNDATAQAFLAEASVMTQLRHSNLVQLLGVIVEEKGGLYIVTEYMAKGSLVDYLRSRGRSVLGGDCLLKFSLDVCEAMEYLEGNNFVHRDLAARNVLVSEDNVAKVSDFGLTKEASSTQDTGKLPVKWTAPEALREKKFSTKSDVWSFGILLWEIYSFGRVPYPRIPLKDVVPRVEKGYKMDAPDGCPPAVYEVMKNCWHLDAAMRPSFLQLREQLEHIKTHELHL

[4] = target: T1, Phenylalanine--tRNA ligase beta subunit (Homo sapiens, UniProt Q9NSD9)
T1 sequence (Q9NSD9 whole entry): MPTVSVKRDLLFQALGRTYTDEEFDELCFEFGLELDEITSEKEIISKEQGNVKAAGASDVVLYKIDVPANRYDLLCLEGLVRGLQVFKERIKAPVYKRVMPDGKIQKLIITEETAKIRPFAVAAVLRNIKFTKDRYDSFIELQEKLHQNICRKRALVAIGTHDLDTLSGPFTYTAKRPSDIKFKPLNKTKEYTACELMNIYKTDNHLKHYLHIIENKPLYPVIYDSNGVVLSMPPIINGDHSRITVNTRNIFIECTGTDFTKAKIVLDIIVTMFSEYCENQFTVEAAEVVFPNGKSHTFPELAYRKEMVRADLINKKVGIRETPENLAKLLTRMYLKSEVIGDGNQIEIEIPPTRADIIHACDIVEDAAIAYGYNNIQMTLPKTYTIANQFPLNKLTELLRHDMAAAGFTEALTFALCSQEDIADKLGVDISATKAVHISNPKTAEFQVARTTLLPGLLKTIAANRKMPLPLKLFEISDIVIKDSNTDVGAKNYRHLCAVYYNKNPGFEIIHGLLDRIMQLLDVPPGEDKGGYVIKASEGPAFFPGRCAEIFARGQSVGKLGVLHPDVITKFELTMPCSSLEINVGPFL

[5] = target: Mitogen-activated protein kinase kinase kinase kinase 4 (Homo sapiens, UniProt O95819)
Chain of Mitogen-activated protein kinase kinase kinase kinase 4 (O95819 whole entry): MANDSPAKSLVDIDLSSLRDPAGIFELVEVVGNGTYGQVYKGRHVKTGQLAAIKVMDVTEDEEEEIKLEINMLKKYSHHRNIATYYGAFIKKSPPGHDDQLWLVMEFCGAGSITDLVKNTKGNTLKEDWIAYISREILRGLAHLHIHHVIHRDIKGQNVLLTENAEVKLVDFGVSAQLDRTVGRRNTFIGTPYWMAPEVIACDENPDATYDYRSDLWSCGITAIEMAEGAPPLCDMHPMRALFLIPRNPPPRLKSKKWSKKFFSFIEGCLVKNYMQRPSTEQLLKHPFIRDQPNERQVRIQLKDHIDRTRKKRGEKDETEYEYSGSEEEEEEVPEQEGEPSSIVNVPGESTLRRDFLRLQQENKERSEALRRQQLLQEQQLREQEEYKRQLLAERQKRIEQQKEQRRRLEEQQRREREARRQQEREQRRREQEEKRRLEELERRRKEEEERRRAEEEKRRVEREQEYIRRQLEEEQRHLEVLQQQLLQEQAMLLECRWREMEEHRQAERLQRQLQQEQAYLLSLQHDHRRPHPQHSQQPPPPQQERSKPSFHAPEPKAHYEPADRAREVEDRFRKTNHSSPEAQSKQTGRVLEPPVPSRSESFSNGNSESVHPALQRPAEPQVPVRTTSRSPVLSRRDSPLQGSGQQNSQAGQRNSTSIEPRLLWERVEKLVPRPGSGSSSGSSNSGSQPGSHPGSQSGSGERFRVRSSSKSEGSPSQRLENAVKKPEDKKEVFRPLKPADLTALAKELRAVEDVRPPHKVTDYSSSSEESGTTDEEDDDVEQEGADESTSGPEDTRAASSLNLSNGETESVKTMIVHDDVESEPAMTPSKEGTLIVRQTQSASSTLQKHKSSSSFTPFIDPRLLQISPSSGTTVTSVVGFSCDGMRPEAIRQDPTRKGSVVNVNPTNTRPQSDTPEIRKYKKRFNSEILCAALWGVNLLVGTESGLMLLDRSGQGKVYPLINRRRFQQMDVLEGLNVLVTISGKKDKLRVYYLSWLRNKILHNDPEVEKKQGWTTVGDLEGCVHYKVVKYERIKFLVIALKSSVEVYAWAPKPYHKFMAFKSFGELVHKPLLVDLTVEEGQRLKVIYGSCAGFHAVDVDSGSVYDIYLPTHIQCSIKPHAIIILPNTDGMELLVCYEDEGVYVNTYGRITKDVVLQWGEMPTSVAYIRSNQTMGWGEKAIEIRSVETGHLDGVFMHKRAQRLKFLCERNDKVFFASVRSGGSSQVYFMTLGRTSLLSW

[6] = target: T2, NUAK family SNF1-like kinase 2 (Homo sapiens, UniProt Q9H093)
T2 sequence (Q9H093 whole entry): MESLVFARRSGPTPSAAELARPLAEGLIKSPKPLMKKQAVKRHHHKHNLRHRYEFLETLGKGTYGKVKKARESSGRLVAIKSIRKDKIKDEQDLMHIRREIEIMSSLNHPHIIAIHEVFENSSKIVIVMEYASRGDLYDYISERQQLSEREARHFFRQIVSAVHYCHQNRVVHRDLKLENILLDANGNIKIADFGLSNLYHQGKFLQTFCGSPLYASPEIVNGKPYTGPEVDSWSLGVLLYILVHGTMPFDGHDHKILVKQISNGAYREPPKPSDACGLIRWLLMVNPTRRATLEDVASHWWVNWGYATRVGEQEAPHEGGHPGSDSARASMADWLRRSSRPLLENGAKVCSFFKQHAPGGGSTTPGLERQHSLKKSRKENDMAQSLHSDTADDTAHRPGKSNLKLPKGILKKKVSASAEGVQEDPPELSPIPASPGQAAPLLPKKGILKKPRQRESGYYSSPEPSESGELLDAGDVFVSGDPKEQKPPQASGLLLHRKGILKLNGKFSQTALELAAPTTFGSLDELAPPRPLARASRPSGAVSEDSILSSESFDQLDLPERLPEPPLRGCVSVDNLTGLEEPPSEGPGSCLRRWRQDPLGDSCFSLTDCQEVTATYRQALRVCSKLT

[7] = target: T3, Serine/threonine-protein kinase PLK4 (Homo sapiens, UniProt O00444)
T3 sequence (O00444 whole entry): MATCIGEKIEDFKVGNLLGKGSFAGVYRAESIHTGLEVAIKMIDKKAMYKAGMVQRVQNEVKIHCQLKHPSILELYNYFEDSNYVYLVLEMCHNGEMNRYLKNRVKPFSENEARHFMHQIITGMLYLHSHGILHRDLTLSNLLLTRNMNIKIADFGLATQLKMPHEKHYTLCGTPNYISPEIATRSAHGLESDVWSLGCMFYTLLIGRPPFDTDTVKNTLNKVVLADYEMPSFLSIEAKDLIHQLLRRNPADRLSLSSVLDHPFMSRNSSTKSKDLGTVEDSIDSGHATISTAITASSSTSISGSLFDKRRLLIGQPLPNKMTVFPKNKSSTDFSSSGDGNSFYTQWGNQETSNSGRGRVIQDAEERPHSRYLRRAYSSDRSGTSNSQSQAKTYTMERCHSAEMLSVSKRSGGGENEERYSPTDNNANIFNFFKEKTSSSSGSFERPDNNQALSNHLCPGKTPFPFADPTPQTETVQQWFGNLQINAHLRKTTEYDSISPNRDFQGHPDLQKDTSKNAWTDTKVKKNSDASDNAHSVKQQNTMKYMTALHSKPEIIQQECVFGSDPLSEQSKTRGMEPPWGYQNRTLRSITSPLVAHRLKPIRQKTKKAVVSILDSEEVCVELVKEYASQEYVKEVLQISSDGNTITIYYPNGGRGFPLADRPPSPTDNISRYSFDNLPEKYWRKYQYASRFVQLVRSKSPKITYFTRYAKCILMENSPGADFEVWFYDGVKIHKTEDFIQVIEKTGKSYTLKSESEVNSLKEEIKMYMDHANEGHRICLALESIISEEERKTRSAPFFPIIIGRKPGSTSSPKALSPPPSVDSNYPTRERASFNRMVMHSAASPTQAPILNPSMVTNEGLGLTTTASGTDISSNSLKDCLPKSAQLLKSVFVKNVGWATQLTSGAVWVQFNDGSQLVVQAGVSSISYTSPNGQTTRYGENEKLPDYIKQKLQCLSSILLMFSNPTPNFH

[8] = target: T4, Ras-related protein Rab-10 (Homo sapiens, UniProt P61026)
T4 sequence (P61026 whole entry): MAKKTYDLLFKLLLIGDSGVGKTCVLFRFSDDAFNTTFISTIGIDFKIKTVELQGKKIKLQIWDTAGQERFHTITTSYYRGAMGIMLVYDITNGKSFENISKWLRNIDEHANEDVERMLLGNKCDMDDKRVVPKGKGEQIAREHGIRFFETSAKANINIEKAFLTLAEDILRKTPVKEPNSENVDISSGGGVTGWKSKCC

Wee1-like protein kinase = Wee1-like protein kinase (Homo sapiens, UniProt P30291)
Chain of Wee1-like protein kinase (P30291 whole entry): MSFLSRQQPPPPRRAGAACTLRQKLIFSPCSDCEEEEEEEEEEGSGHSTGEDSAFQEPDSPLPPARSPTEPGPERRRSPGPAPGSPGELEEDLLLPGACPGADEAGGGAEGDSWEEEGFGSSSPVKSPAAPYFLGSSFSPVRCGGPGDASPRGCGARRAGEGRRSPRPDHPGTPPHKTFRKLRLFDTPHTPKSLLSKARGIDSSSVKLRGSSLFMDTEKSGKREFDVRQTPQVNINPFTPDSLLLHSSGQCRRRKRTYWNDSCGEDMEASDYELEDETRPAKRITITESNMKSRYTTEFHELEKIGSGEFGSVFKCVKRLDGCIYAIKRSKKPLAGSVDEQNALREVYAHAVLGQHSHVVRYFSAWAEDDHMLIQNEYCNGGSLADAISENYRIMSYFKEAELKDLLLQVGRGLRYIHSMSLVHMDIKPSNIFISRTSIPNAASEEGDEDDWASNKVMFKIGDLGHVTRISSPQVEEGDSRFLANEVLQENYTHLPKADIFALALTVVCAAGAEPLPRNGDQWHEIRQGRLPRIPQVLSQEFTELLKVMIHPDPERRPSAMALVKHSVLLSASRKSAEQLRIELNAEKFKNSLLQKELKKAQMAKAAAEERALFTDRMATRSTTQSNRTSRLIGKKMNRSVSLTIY

Measured: Kd
Note: in the data inactive means no Kd found up to 30 µM.

Chain of Cyclin-dependent kinase 6 (Q00534 whole entry): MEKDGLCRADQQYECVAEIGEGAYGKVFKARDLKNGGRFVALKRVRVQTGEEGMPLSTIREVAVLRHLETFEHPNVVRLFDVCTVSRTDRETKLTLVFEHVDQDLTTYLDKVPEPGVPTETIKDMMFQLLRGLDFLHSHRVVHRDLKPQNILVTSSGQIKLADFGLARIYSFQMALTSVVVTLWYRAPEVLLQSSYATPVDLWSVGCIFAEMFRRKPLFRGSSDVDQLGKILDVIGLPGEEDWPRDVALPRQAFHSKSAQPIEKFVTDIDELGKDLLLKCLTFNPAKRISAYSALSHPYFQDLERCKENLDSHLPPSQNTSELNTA
Chain of Serine/threonine-protein kinase MRCK alpha (Q5VT25 whole entry): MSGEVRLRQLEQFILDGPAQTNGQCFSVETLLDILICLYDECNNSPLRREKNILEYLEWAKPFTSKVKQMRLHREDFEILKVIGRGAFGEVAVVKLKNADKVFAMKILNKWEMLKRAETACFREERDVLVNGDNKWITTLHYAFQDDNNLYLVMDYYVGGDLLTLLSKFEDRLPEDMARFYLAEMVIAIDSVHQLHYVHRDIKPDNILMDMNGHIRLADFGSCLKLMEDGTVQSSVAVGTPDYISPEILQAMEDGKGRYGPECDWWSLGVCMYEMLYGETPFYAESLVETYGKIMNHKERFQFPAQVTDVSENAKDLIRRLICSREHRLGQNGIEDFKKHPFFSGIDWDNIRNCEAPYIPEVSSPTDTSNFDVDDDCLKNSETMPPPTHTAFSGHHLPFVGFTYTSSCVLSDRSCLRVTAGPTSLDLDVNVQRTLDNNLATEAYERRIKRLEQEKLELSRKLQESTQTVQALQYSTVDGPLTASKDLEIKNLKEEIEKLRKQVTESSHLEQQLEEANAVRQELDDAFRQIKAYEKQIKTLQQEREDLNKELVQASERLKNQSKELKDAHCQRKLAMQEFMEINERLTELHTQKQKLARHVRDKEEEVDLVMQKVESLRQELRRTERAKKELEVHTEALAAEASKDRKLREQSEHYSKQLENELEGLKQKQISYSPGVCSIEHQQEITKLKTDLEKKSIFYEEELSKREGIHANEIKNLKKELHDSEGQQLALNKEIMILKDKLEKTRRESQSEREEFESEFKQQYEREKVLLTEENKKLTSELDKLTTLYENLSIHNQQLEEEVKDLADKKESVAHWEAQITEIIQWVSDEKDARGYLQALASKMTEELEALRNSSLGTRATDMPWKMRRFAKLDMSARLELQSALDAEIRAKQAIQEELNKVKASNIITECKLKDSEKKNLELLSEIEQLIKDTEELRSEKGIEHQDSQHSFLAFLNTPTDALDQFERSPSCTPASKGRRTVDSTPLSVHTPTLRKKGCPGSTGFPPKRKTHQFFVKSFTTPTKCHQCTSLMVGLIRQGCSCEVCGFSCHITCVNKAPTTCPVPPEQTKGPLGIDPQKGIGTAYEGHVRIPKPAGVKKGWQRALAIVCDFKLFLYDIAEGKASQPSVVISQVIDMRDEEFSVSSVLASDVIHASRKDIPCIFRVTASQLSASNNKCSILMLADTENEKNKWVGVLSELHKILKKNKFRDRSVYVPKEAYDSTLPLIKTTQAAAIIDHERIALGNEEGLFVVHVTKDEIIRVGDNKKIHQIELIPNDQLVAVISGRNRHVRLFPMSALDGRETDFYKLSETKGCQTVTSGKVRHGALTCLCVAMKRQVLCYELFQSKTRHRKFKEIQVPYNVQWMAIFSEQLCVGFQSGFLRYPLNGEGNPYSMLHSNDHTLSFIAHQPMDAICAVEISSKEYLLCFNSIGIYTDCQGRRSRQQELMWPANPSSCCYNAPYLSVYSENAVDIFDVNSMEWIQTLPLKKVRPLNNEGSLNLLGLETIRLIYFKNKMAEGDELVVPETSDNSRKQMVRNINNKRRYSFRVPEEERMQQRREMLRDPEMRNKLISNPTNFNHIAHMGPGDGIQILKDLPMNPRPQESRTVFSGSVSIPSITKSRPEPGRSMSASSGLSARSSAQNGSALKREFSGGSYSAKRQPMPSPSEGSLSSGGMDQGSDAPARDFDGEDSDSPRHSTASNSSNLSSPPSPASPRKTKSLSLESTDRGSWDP

COc1cc2nccc(Oc3ccc(NC(=O)C4(C(=O)Nc5ccc(F)cc5)CC4)cc3)c2cc1OC [CABOZANTINIB]
inactive: [1] > 30 µM | [2] > 30 µM | [3] > 30 µM | [4] > 30 µM | [5] > 30 µM | [6] > 30 µM | [7] > 30 µM | [8] > 30 µM | Wee1-like protein kinase > 30 µM

O=C(Nc1ccc(OC(F)(F)F)cc1)c1sccc1NCc1ccnc2ccccc12 [OSI-930]
inactive: [1] > 30 µM | [2] > 30 µM | [3] > 30 µM | [4] > 30 µM | [5] > 30 µM | [6] > 30 µM | [7] > 30 µM | [8] > 30 µM | Wee1-like protein kinase > 30 µM

Cc1cc(Nc2nc(N[C@@H](C)c3ncc(F)cn3)ncc2Cl)n[nH]1 [AZD-1480]
inactive: [1] > 30 µM | [2] > 30 µM | [3] > 30 µM | [4] > 30 µM | [5] > 30 µM | [6] > 30 µM | [8] > 30 µM | Wee1-like protein kinase > 30 µM
active: [7] 0.308 µM

COc1cccc(Nc2ncnn3ccc(CN4CC[C@@H](N)[C@H](O)C4)c23)c1 [BMS-690514]
active: [3] 1.72 µM
inactive: [1] > 30 µM | [2] > 30 µM | [4] > 30 µM | [5] > 30 µM | [6] > 30 µM | [7] > 30 µM | [8] > 30 µM | Wee1-like protein kinase > 30 µM

COc1cc2ncnc3c2cc1OCCCCCN(C)Cc1ccc(Br)cc1N3 [JNJ-26483327]
inactive: [1] > 30 µM | [2] > 30 µM | [3] > 30 µM | [4] > 30 µM | [5] > 30 µM | [6] > 30 µM | [7] > 30 µM | [8] > 30 µM | Wee1-like protein kinase > 30 µM

CCc1cc2c(cc1N1CCC(N3CCOCC3)CC1)C(C)(C)c1[nH]c3cc(C#N)ccc3c1C2=O [ALECTINIB]
inactive: [1] > 30 µM | [2] > 30 µM | [3] > 30 µM | [4] > 30 µM | [5] > 30 µM | [6] > 30 µM | [7] > 30 µM | [8] > 30 µM | Wee1-like protein kinase > 30 µM

CNC(=O)c1cccc(-c2ccc3c(N4CCOC[C@@H]4C)nc(N4CCOC[C@@H]4C)nc3n2)c1 [VISTUSERTIB]
inactive: [1] > 30 µM | [2] > 30 µM | [3] > 30 µM | [4] > 30 µM | [5] > 30 µM | [6] > 30 µM | [7] > 30 µM | [8] > 30 µM | Wee1-like protein kinase > 30 µM

Cn1c(=O)c(F)c(Nc2ccc(I)cc2F)c2c(=O)n(C[C@@H](O)CO)cnc21 [TAK-733]
inactive: [1] > 30 µM | [2] > 30 µM | [3] > 30 µM | [4] > 30 µM | [5] > 30 µM | [6] > 30 µM | [7] > 30 µM | [8] > 30 µM | Wee1-like protein kinase > 30 µM

O=C(NOC[C@H](O)CO)c1ccc(F)c(F)c1Nc1ccc(I)cc1F [MIRDAMETINIB]
inactive: [1] > 30 µM | [2] > 30 µM | [3] > 30 µM | [4] > 30 µM | [5] > 30 µM | [6] > 30 µM | [7] > 30 µM | [8] > 30 µM | Wee1-like protein kinase > 30 µM

CC(C)(O)CC(=O)NCCn1ccc2ncnc(Nc3ccc(Oc4cccc(C(F)(F)F)c4)c(Cl)c3)c21 [TAK-285]
inactive: [1] > 30 µM | [2] > 30 µM | [3] > 30 µM | [4] > 30 µM | [5] > 30 µM | [6] > 30 µM | [7] > 30 µM | [8] > 30 µM | Wee1-like protein kinase > 30 µM

Cc1cc(C(=O)Nc2cc(Oc3ccc4nc(NC(=O)C5CC5)cn4n3)ccc2C)n(C)n1 [TAK-593]
inactive: [1] > 30 µM | [2] > 30 µM | [3] > 30 µM | [4] > 30 µM | [5] > 30 µM | [6] > 30 µM | [7] > 30 µM | [8] > 30 µM | Wee1-like protein kinase > 30 µM

COc1cc2ncnc(Nc3ccc(F)c(Cl)c3)c2cc1NC(=O)/C=C/CN1CCCCC1 [DACOMITINIB ANHYDROUS]
inactive: [1] > 30 µM | [2] > 30 µM | [3] > 30 µM | [4] > 30 µM | [5] > 30 µM | [6] > 30 µM | [7] > 30 µM | Wee1-like protein kinase > 30 µM

COc1ccc2c(OCc3nnc4ccc(-c5ccccc5)nn34)ccnc2c1 [AMG-208]
inactive: [1] > 30 µM | [2] > 30 µM | [3] > 30 µM | [4] > 30 µM | [5] > 30 µM | [7] > 30 µM | [8] > 30 µM | Wee1-like protein kinase > 30 µM

CCN1CCN(Cc2ccc(Nc3ncc(F)c(-c4cc(F)c5nc(C)n(C(C)C)c5c4)n3)nc2)CC1 [ABEMACICLIB]
inactive: [1] > 30 µM | [3] > 30 µM | [4] > 30 µM | [6] > 30 µM | [7] > 30 µM | [8] > 30 µM | Wee1-like protein kinase > 30 µM
active: [5] 1.32 µM

O=C(NC[C@H](O)CO)c1ccncc1Nc1ccc(I)cc1F [PIMASERTIB]
inactive: [1] > 30 µM | [2] > 30 µM | [3] > 30 µM | [4] > 30 µM | [5] > 30 µM | [7] > 30 µM | [8] > 30 µM | Wee1-like protein kinase > 30 µM

O=c1[nH]c([C@@H]2CCCN2)nc2c1oc1ccc(Cl)cc12
inactive: [1] > 30 µM | [2] > 30 µM | [3] > 30 µM | [5] > 30 µM | [6] > 30 µM | [7] > 30 µM | [8] > 30 µM | Wee1-like protein kinase > 30 µM
